Laboratory results published in patent US20230172204A1 (BASF SE, priority 2020, published 2023).

Legend:
[1] = test system: Phakopsora pachyrhizi (F129L); assay: Protective control of soybean rust on soybeans (PHAKPA P2); assay type: in vivo; settings: for % PHAKPA (F129L) Disease level P2 at 4 ppm: protective P2, 4 ppm; for % PHAKPA (F129L) Disease level P2 at 4 ppm / % PHAKPA (F129L) Disease level P2 at 16 ppm: soybean rust F129L; for % PHAKPA (F129L) Disease level P2 at 16 ppm: protective P2, 16 ppm; for PHAKPA (F129L) Disease level (%) P2 at 4 ppm / PHAKPA (F129L) Disease level (%) P2 at 16 ppm: P2 protective, % diseased leaf area
[2] = test system: Phakopsora pachyrhizi (F129L); assay: Protective control of soybean rust on soybeans (PHAKPA P6); assay type: in vivo; settings: for % PHAKPA (F129L) Disease level P6 at 4 ppm: protective P6, 4 ppm; for % PHAKPA (F129L) Disease level P6 at 4 ppm / % PHAKPA (F129L) Disease level P6 at 16 ppm: soybean rust F129L; for % PHAKPA (F129L) Disease level P6 at 16 ppm: protective P6, 16 ppm; for PHAKPA (F129L) Disease level (%) P6 at 4 ppm / PHAKPA (F129L) Disease level (%) P6 at 16 ppm: P6 protective, % diseased leaf area

CNC(=O)/C(=N/OC)c1cccc(C)c1CO/N=C(\C)c1ccc(F)c(C(F)(F)F)c1 [compound 47]
% PHAKPA (F129L) Disease level P2 at 4 ppm [1]: 13%
% PHAKPA (F129L) Disease level P2 at 16 ppm [1]: 0%
% PHAKPA (F129L) Disease level P6 at 4 ppm [2]: 12%
% PHAKPA (F129L) Disease level P6 at 16 ppm [2]: 0%

CCC/C(=N\OCc1c(C)cccc1/C(=N\OC)C(=O)NC)c1ccccc1 [compound 388]
% PHAKPA (F129L) Disease level P2 at 4 ppm [1]: 1%
% PHAKPA (F129L) Disease level P2 at 16 ppm [1]: 0%
% PHAKPA (F129L) Disease level P6 at 4 ppm [2]: 3%
% PHAKPA (F129L) Disease level P6 at 16 ppm [2]: 0%

CO/N=C(/C(=O)OC)c1cccc(C)c1CO/N=C(\C)c1cccc(C2CC2)c1 [compound 297]
% PHAKPA (F129L) Disease level P2 at 4 ppm [1]: 90%
% PHAKPA (F129L) Disease level P2 at 16 ppm [1]: 37%
% PHAKPA (F129L) Disease level P6 at 4 ppm [2]: 87%
% PHAKPA (F129L) Disease level P6 at 16 ppm [2]: 37%

CNC(=O)/C(=N/OC)c1cccc(C)c1CO/N=C(\C)c1ccc(C)c(Cl)c1 [compound 109]
% PHAKPA (F129L) Disease level P2 at 4 ppm [1]: 8%
% PHAKPA (F129L) Disease level P2 at 16 ppm [1]: 1%
% PHAKPA (F129L) Disease level P6 at 4 ppm [2]: 12%
% PHAKPA (F129L) Disease level P6 at 16 ppm [2]: 0%

CNC(=O)/C(=N/OC)c1cccc(C)c1CO/N=C(\C)c1ccc(OC(F)(F)F)cc1F [compound 270]
% PHAKPA (F129L) Disease level P2 at 4 ppm [1]: 3%
% PHAKPA (F129L) Disease level P2 at 16 ppm [1]: 0%
% PHAKPA (F129L) Disease level P6 at 4 ppm [2]: 0%
% PHAKPA (F129L) Disease level P6 at 16 ppm [2]: 1%

CNC(=O)/C(=N/OC)c1cccc(C)c1CO/N=C(\C)c1cccc(/C(=N/OC)C(F)(F)F)c1 [compound 71]
% PHAKPA (F129L) Disease level P2 at 4 ppm [1]: 2%
% PHAKPA (F129L) Disease level P2 at 16 ppm [1]: 0%
% PHAKPA (F129L) Disease level P6 at 4 ppm [2]: 6%
% PHAKPA (F129L) Disease level P6 at 16 ppm [2]: 0%

CNC(=O)/C(=N/OC)c1cccc(C)c1CO/N=C(\C)c1ccc(Cl)cc1OC(F)(F)F [compound 375]
% PHAKPA (F129L) Disease level P2 at 4 ppm [1]: 47%
% PHAKPA (F129L) Disease level P2 at 16 ppm [1]: 8%
% PHAKPA (F129L) Disease level P6 at 4 ppm [2]: 40%
% PHAKPA (F129L) Disease level P6 at 16 ppm [2]: 6%

CO/N=C(/C(=O)OC)c1cccc(C)c1CO/N=C(\C)c1cc(F)cc(F)c1 [compound 87]
% PHAKPA (F129L) Disease level P2 at 4 ppm [1]: 8%
% PHAKPA (F129L) Disease level P2 at 16 ppm [1]: 0%
% PHAKPA (F129L) Disease level P6 at 4 ppm [2]: 7%
% PHAKPA (F129L) Disease level P6 at 16 ppm [2]: 0%

CNC(=O)/C(=N/OC)c1cccc(C)c1CO/N=C(\C)c1ccc(Cl)c(Cl)c1 [Ex. 41]
PHAKPA (F129L) Disease level (%) P2 at 4 ppm [1]: 4%
% PHAKPA (F129L) Disease level P2 at 4 ppm [1]: 15%
% PHAKPA (F129L) Disease level P2 at 16 ppm [1]: 9%
PHAKPA (F129L) Disease level (%) P6 at 4 ppm [2]: 35%
% PHAKPA (F129L) Disease level P6 at 4 ppm [2]: 36%
% PHAKPA (F129L) Disease level P6 at 16 ppm [2]: 14%

CNC(=O)/C(=N/OC)c1cccc(C)c1CO/N=C(/c1ccccc1)C(C)C [compound 389]
% PHAKPA (F129L) Disease level P2 at 4 ppm [1]: 28%
% PHAKPA (F129L) Disease level P2 at 16 ppm [1]: 4%
% PHAKPA (F129L) Disease level P6 at 4 ppm [2]: 43%
% PHAKPA (F129L) Disease level P6 at 16 ppm [2]: 3%

CNC(=O)/C(=N/OC)c1cccc(C)c1CO/N=C(\C)c1cc(Cl)ccc1C(F)(F)F [compound 245]
% PHAKPA (F129L) Disease level P2 at 4 ppm [1]: 28%
% PHAKPA (F129L) Disease level P2 at 16 ppm [1]: 8%
% PHAKPA (F129L) Disease level P6 at 4 ppm [2]: 13%
% PHAKPA (F129L) Disease level P6 at 16 ppm [2]: 2%

CO/N=C(/C(=O)OC)c1cccc(C)c1CO/N=C(\C)c1ccccc1C1CC1 [compound 217]
% PHAKPA (F129L) Disease level P2 at 4 ppm [1]: 97%
% PHAKPA (F129L) Disease level P2 at 16 ppm [1]: 53%
% PHAKPA (F129L) Disease level P6 at 4 ppm [2]: 93%
% PHAKPA (F129L) Disease level P6 at 16 ppm [2]: 100%

CO/N=C(/C(=O)OC)c1cccc(C)c1CO/N=C(\C)c1ccccc1-c1ccccc1 [compound 121]
% PHAKPA (F129L) Disease level P2 at 4 ppm [1]: 100%
% PHAKPA (F129L) Disease level P2 at 16 ppm [1]: 98%
% PHAKPA (F129L) Disease level P6 at 4 ppm [2]: 98%
% PHAKPA (F129L) Disease level P6 at 16 ppm [2]: 92%

CO/N=C(/C(=O)OC)c1cccc(C)c1CO/N=C(\C)c1cccc(Br)c1 [Ex. 56]
PHAKPA (F129L) Disease level (%) P2 at 16 ppm [1]: 32%
% PHAKPA (F129L) Disease level P2 at 4 ppm [1]: 43%
% PHAKPA (F129L) Disease level P2 at 16 ppm [1]: 24%
PHAKPA (F129L) Disease level (%) P6 at 16 ppm [2]: 15%
% PHAKPA (F129L) Disease level P6 at 4 ppm [2]: 67%
% PHAKPA (F129L) Disease level P6 at 16 ppm [2]: 19%

CO/N=C(/C(=O)OC)c1cccc(C)c1CO/N=C(/c1ccc(Cl)cc1)C(F)F [Ex. 20]
% PHAKPA (F129L) Disease level P2 at 4 ppm [1]: 73%
% PHAKPA (F129L) Disease level P2 at 16 ppm [1]: 29%
% PHAKPA (F129L) Disease level P6 at 4 ppm [2]: 97%
% PHAKPA (F129L) Disease level P6 at 16 ppm [2]: 18%

CO/N=C(/C(=O)OC)c1cccc(C)c1CO/N=C(\C)c1ccc(F)cc1Cl [compound 256]
% PHAKPA (F129L) Disease level P2 at 4 ppm [1]: 50%
% PHAKPA (F129L) Disease level P2 at 16 ppm [1]: 18%
% PHAKPA (F129L) Disease level P6 at 4 ppm [2]: 70%
% PHAKPA (F129L) Disease level P6 at 16 ppm [2]: 20%

CO/N=C(/C(=O)OC)c1cccc(C)c1CO/N=C(\C)c1c(F)cc(F)cc1F [compound 169]
% PHAKPA (F129L) Disease level P2 at 4 ppm [1]: 77%
% PHAKPA (F129L) Disease level P2 at 16 ppm [1]: 0%
% PHAKPA (F129L) Disease level P6 at 4 ppm [2]: 77%
% PHAKPA (F129L) Disease level P6 at 16 ppm [2]: 0%

CO/N=C(/C(=O)OC)c1cccc(C)c1CO/N=C(\C)c1cc(C)cc(C)c1 [compound 94]
% PHAKPA (F129L) Disease level P2 at 4 ppm [1]: 22%
% PHAKPA (F129L) Disease level P2 at 16 ppm [1]: 5%
% PHAKPA (F129L) Disease level P6 at 4 ppm [2]: 35%
% PHAKPA (F129L) Disease level P6 at 16 ppm [2]: 2%

CNC(=O)/C(=N/OC)c1ccccc1CO/N=C(\C)c1cccc(-c2noc(C(F)(F)F)n2)c1 [reference compound]
PHAKPA (F129L) Disease level (%) P2 at 16 ppm [1]: 23%
PHAKPA (F129L) Disease level (%) P6 at 16 ppm [2]: 32%

CNC(=O)/C(=N/OC)c1cccc(C)c1CO/N=C(\C)c1cc(C2CC2)cc(C(F)(F)F)c1 [compound 150]
% PHAKPA (F129L) Disease level P2 at 4 ppm [1]: 56%
% PHAKPA (F129L) Disease level P2 at 16 ppm [1]: 8%
% PHAKPA (F129L) Disease level P6 at 4 ppm [2]: 70%
% PHAKPA (F129L) Disease level P6 at 16 ppm [2]: 29%

C#Cc1cc(/C(C)=N/OCc2c(C)cccc2/C(=N\OC)C(=O)OC)cc(C(F)(F)F)c1 [compound 143]
% PHAKPA (F129L) Disease level P2 at 4 ppm [1]: 4%
% PHAKPA (F129L) Disease level P2 at 16 ppm [1]: 0%
% PHAKPA (F129L) Disease level P6 at 4 ppm [2]: 15%
% PHAKPA (F129L) Disease level P6 at 16 ppm [2]: 0%

CCc1cc(/C(C)=N/OCc2c(C)cccc2/C(=N\OC)C(=O)OC)cc(C(F)(F)F)c1 [compound 146]
% PHAKPA (F129L) Disease level P2 at 4 ppm [1]: 73%
% PHAKPA (F129L) Disease level P2 at 16 ppm [1]: 12%
% PHAKPA (F129L) Disease level P6 at 4 ppm [2]: 77%
% PHAKPA (F129L) Disease level P6 at 16 ppm [2]: 48%

CNC(=O)/C(=N/OC)c1cccc(C)c1CO/N=C(\C)c1cc(F)cc(C(F)(F)F)c1 [compound 50]
% PHAKPA (F129L) Disease level P2 at 4 ppm [1]: 2%
% PHAKPA (F129L) Disease level P2 at 16 ppm [1]: 1%
% PHAKPA (F129L) Disease level P6 at 4 ppm [2]: 6%
% PHAKPA (F129L) Disease level P6 at 16 ppm [2]: 0%

CO/N=C(/C(=O)OC)c1cccc(C)c1CO/N=C(\C)c1cc(C(F)(F)F)cc(C(F)(F)F)c1 [compound 34]
% PHAKPA (F129L) Disease level P2 at 4 ppm [1]: 100%
% PHAKPA (F129L) Disease level P2 at 16 ppm [1]: 90%
% PHAKPA (F129L) Disease level P6 at 4 ppm [2]: 90%
% PHAKPA (F129L) Disease level P6 at 16 ppm [2]: 83%

CNC(=O)/C(=N/OC)c1cccc(C)c1CO/N=C(\C)c1c(F)cccc1OC(F)F [compound 202]
% PHAKPA (F129L) Disease level P2 at 4 ppm [1]: 90%
% PHAKPA (F129L) Disease level P2 at 16 ppm [1]: 22%
% PHAKPA (F129L) Disease level P6 at 4 ppm [2]: 100%
% PHAKPA (F129L) Disease level P6 at 16 ppm [2]: 47%

CNC(=O)/C(=N/OC)c1cccc(C)c1CO/N=C(\C)c1ccccc1 [Ex. 31]
PHAKPA (F129L) Disease level (%) P2 at 4 ppm [1]: 0%
% PHAKPA (F129L) Disease level P2 at 4 ppm [1]: 0%
% PHAKPA (F129L) Disease level P2 at 16 ppm [1]: 0%
PHAKPA (F129L) Disease level (%) P6 at 4 ppm [2]: 12%
% PHAKPA (F129L) Disease level P6 at 4 ppm [2]: 4%
% PHAKPA (F129L) Disease level P6 at 16 ppm [2]: 0%

CNC(=O)/C(=N/OC)c1cccc(CF)c1CO/N=C(\C)c1cccc(C(F)(F)F)c1 [compound 26]
% PHAKPA (F129L) Disease level P2 at 4 ppm [1]: 12%
% PHAKPA (F129L) Disease level P2 at 16 ppm [1]: 0%
% PHAKPA (F129L) Disease level P6 at 4 ppm [2]: 19%
% PHAKPA (F129L) Disease level P6 at 16 ppm [2]: 1%

CO/C=C(/C(=O)OC)c1cccc(C)c1CO/N=C(\C)c1c(Cl)cc(Cl)cc1OC(F)(F)F [compound 436]
% PHAKPA (F129L) Disease level P2 at 4 ppm [1]: 70%
% PHAKPA (F129L) Disease level P2 at 16 ppm [1]: 15%
% PHAKPA (F129L) Disease level P6 at 4 ppm [2]: 73%
% PHAKPA (F129L) Disease level P6 at 16 ppm [2]: 27%

CO/N=C(/C(=O)OC)c1cccc(C)c1CO/N=C(\C)c1cccc(F)c1F [compound 177]
% PHAKPA (F129L) Disease level P2 at 4 ppm [1]: 100%
% PHAKPA (F129L) Disease level P2 at 16 ppm [1]: 21%
% PHAKPA (F129L) Disease level P6 at 4 ppm [2]: 87%
% PHAKPA (F129L) Disease level P6 at 16 ppm [2]: 47%
